Where two headings read alike, the source gives them in different places.
Experiments:
[1] = Plasma levels, SOD1G93A model; assay type: in vivo, Transgenic SOD1^G93A male mouse; settings: SOD1G93A transgenic, ip
Method: (§1) The compounds were dissolved in 0.5% hydroxypropyl-methylcellulose (HPMC; H7509, Sigma-Aldrich) in distilled water and were administered by intraperitoneal (i.p.) route twice daily (bid) in a volume of 10 mL/kg. Administrations were given from 30 min after rhizotomy surgery until 42 days post-injury (dpi), the end of the study; in the SOD1^G93A study, treatments were given from 8 to 16 weeks of age (see Figure 6).
Plasma levels were determined in the two in vivo models evaluated to be able to associate the pharmacological activity with the levels present in plasma. In the rhizotomy model, the plasma levels were evaluated at Day 42 after surgery and at 15 min after compound administration (0.5 and 5 mg/kg i.p.). […] Plasma samples were assayed by ultraperformance liquid chromatography−triple quadrupole mass spectrometry (UPLC-MS/MS) after plasma protein precipitation. Results are expressed as mean ± standard deviation (n = 8).

[2] = Body weight in SOD1G93A mice; assay type: in vivo, SOD1^G93A male mice; settings: 5 mg/kg i.p., 8 to 16 weeks of age
Method: as §1

[3] = tested on: spinal α-MNs in SOD1^G93A mice; test: Spinal MN counts in SOD1G93A mice; assay type: in vivo, SOD1^G93A male mice; settings: 5 mg/kg i.p.; 16 weeks of age; untreated 6.9 ± 0.5, WT 25.3 ± 0.5
Method: as §1
At the end of follow-up (42 dpi for rhizotomy and 16 weeks of age for ALS mice; Figure 6), the animals were deeply anesthetized and transcardially perfused with 4% PFA in PBS. The lumbar spinal cord and the TA muscle were harvested and cryopreserved in 30% sucrose solution in PB. The spinal cords were serially cut in 20 µm thick transverse sections with a cryostat (Leica, Mannheim, Germany). For MN counting, L4-L5 spinal cord sections separated 100 µm were stained for 3 h with an acidified solution of 3.1 mM cresyl violet. MNs were identified by their localization in the lateral ventral horn of the spinal cord and were counted following strict size and morphological criteria: only MNs with a diameter larger than 20 µm, polygonal shape, and prominent nucleoli were counted.

SOD1^G93A mice [4] = test: Rotarod test in SOD1G93A mice; assay type: in vivo, SOD1^G93A male mice; settings: 5 mg/kg i.p.; at 15 weeks of age
Method: as §1
A rotarod test was performed to evaluate motor coordination and strength. The time that each animal remained on the rotating rod at a speed of 14 rpm was measured for five trials per mouse, and the longest time until falling was recorded; 180 s was chosen as the cut-off time. The test was performed weekly from 8 to 16 weeks of age in SOD1^G93A and WT mice, and disease onset was determined as the first week when each mouse was unable to keep walking for 180 s on the rod.

[5] = target: T1, human Sigma-2 receptor (Sig-2R) (Homo sapiens, UniProt Q5BJF2); test: Human Sig-2R radioligand assay; assay type: binding; settings: [3H]-DTG, transfected HEK-293 Sig-1R knockout membranes
T1 construct: expressed in transfected cells; host or cells: HEK-293 Sig-1R knockout (membranes)
Method: The binding properties of the compounds to the human Sig-2R were similarly studied in transfected HEK-293 Sig-1R knockout membranes using [^3H]-1,3-di-o-tolylguanidine (DTG) (NET-986, PerkinElmer; Boston, USA) as the radioligand. The assay was carried out with 15 μg of membrane suspension, [^3H]-1,3-di-o-tolylguanidine (DTG) (10 nM, 100 μL), in either the absence or presence of either buffer or 10 μM haloperidol for total (TB) and nonspecific (NSB) binding, respectively, or the corresponding compound concentration. Binding buffer contained Tris-HCl (50 mM, pH 7.4). Plates were incubated at 25 °C for 120 min. After incubation, the reaction mix was transferred to MultiScreen HTS, FC plates (Merck Millipore) presoaked in 0.5% polyethyleneimine, and filtered. Following that, plates were washed with ice-cold Tris-HCl (10 mM, pH 8). Filters were dried and counted, and data were processed as above.

SOD1^G93A mice [6] = test: Motor nerve conduction tests in SOD1G93A mice; assay type: in vivo, SOD1^G93A male mice
Method: as §1
Motor nerve conduction tests were performed before the surgery to obtain baseline values and at the end of the follow-up in the rhizotomy model, whereas the SOD1^G93A mice were evaluated at 8 weeks (prior to starting drug administration) and then every 2–3 weeks until the end point at 16 weeks of age (Figure 6). The sciatic nerve was stimulated by means of single pulses of 50 µs duration delivered from a Grass S88 stimulator through needle electrodes placed at the sciatic notch. The CMAP was recorded from TA, GM, and plantar interossei muscles with microneedle electrodes, with the active electrode being placed in the muscle and the reference at the fourth toe. […] The mice were anesthetized with pentobarbital (50 mg/kg i.p.), and their body temperature was maintained by means of a thermostatic warming pad.

[7] = tested on: microglia and astrocytes in ventral horn after rhizotomy; test: Glial reactivity after L4-L5 rhizotomy (Iba1, GFAP immunolabeling); assay type: in vivo, female mice (B6SJL); settings: 5 mg/kg bid i.p., 42 dpi; for GFAP integrated density ± SEM (astroglial reactivity): untreated 19 × 10^4; for Iba1 integrated density ± SEM (microglial reactivity): untreated 26 × 10^4
Method: Surgeries were performed on three-month-old mice under anesthesia with ketamine-xylazine (100–10 mg/kg i.p.) as previously described. Briefly, the L4-L5 spinal roots were exposed by a small laminectomy on the right side. Afterwards, roots were cut at the exit from the intervertebral foramina, and the root stumps were separated. Mice were cared for until recovery in a warm environment. Analgesia was provided with buprenorphine (0.1 mg/kg) for the next 48 h post-surgery.
as §1
For glial cells immunofluorescence, other lumbar spinal cord sections were blocked with 10% normal donkey serum and incubated overnight with primary antibodies rabbit anti-Iba1 (1:500; 019–19741, Wako) and rat anti-GFAP (1:500; 13-0300, Invitrogen) to label microglia and astroglia, respectively. After several washes, sections were incubated with secondary antibodies Alexa Fluor 488-donkey anti-rat (1:500; A-21208, Invitrogen) or Alexa Fluor 594 donkey anti-rabbit (1:500; A21207, Invitrogen). Finally, sides were mounted with Fluoromount-G. To quantify glial cell reactivity, images of the ventral horn were acquired with an epifluorescence microscope (Nikon Eclipse Ni, Japan) using the same conditions for each analyzed marker. After defining a threshold for background correction, the integrated density of GFAP or Iba1 labeling was measured using ImageJ software.

[8] = 5 mg/kg i.p. from 8 weeks of age, early (11 weeks) and mid (13 weeks) stages

T1 sequence (Q5BJF2 whole entry): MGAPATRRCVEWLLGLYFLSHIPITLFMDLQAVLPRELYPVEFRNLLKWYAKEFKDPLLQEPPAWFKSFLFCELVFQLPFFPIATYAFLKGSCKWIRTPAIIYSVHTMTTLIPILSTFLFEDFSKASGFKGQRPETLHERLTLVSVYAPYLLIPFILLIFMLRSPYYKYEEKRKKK

C[C@@H]1OC2(CCN(Cc3ccc(F)cc3)CC2)CN(C)C1=O [EST79232]
concentration at 15 min ([1]; plasma, SOD1G93A male mouse, 5 mg/kg i.p., after 8 weeks of administration, read-out: Plasma Concentration 15 min Post-Administration, Mean): 425 ng/mL
Body weight vs vehicle group [2]: did not cause differences in body weight
Number of surviving spinal α-MNs [3]: 10.8 ± 1.1 MNs per section
Rotarod performance vs vehicle (SOD1^G93A mice [4]): significant improvement
IC50 [5]: > 10 µM
CMAP amplitude of TA and plantar muscles vs vehicle (SOD1^G93A mice [6]; [8]): significantly prevented the decline in amplitude of the CMAP of TA and plantar muscles
CMAP amplitude of TA and plantar muscles vs vehicle (SOD1^G93A mice [6]; 5 mg/kg i.p., at 16 weeks of age): effect was reduced to levels found in the vehicle group
GFAP integrated density ± SEM (astroglial reactivity) [7]: 4 × 10^4 ± 0.4 × 10^4
Iba1 integrated density ± SEM (microglial reactivity) [7]: 13 × 10^4 ± 2 × 10^4

CCN1CC2(CCN(Cc3ccc(C#N)c(F)c3)CC2)O[C@@H](C)C1=O [EST79376]
concentration at 15 min ([1]; male, mouse, in vivo, 5 mg/kg): 692 ng/mL
Number of surviving spinal α-MNs [3]: 8.5 ± 1.0 MNs per section
IC50 [5]: > 10 µM
CMAP amplitude of TA and plantar muscles vs vehicle (SOD1^G93A mice [6]; [8]): only showed significant preservation of the CMAP amplitude in the plantar muscle at 13 weeks of age
GFAP integrated density ± SEM (astroglial reactivity) [7]: 15 × 10^4 ± 2.7 × 10^4
Iba1 integrated density ± SEM (microglial reactivity) [7]: 25 × 10^4 ± 4 × 10^4

— paper PMC9223397 (International Journal of Molecular Sciences, 2022)
